US20260373094A1, “MICROSTRUCTURE CONTAINING WATER-SOLUBLE AND FAT-SOLUBLE IMMUNOMODULATOR” (IUCF-HYU (INDUSTRY-UNIVERSITY COOPERATION FOUNDATION …, priority 2022, published 2026)

Experiments:
TGF-β = assay: Inhibition of TGF-β activity in melanoma cells (immunofluorescence, western blotting); type: cell-based; settings: SD208 1 μmol/L, TGF-β 5 ng/m, 24 hours, B16F10 melanoma cells
Procedure: 5×10^4 B16F10 melanoma cells per well of a cell culture plate were cultured in a 12-well plate using Dulbecco's Modified Eagle Medium (DMEM), and then treated with the immunoadjuvant SD208 (1 μmol/L) and the tumor marker TGF-β (5 ng/m) for 24 hours. Thereafter, cells were treated with an anti-α-tubulin Alexa 488 fluorescent antibody and 4′,6-diamidino-2-phenylindole (DAPI), and then imaged using the STELLARIS 8 STED confocal laser scanning microscope.
In addition, changes in the expression levels of proteins activated by TGF-β were confirmed by western blotting using anti-Psmad3, anti-smad3, anti-N-cadherin, and anti-E-cadherin antibodies.

B16F10 melanoma cells [1] = assay: Melanoma cell spheroid volume, 3D cell culture; type: cell-based; settings: SD208 1 μmol/L, TGF-β 5 ng/m, eight days, 3D culture
Procedure: For 3D cell culture, 1,000 B16F10 melanoma cells per 100 μl of DMEM were placed in a PCR tube and collected at the bottom by centrifugation. After culturing the cells in the PCR tubes for three days, they were transferred to a 96-well plate and treated with DMEM containing the immunoadjuvant SD208 (1 μmol/L) and the tumor marker TGF-β (5 ng/m). The DMEM was exchanged with fresh DMEM every three days, and the changes in the size of melanoma cell spheroids were measured for eight days using a microscope.

PD-L1 = assay: Inhibition of PD-L1 protein expression in melanoma cells (confocal, flow cytometry); type: cell-based; settings: SD208 1 μmol/L, TGF-β 5 ng/m, 24 hours, B16F10 melanoma cells
Procedure: 5×10^4 B16F10 melanoma cells per well of a cell culture plate were cultured in a 12-well plate using DMEM, and then treated with the immunoadjuvant SD208 (1 μmol/L) and the tumor marker TGF-β (5 ng/m) for 24 hours.
Thereafter, the cells were imaged using a STELLARIS 8 STED confocal laser scanning microscope after treatment with an anti-PD-L1 Alexa 488 fluorescent antibody. In addition, the fluorescence expression level of the PD-L1 protein was confirmed through flow cytometry.

B16F10 melanoma cells [2] = assay: Wound healing, 2D melanoma cell culture; type: cell-based; settings: SD208 1 μmol/L, TGF-β 5 ng/m, 24 hours, 2D culture
Procedure: For 2D cell culture, 8×10^4 B16F10 melanoma cells were cultured in a 12-well plate using DMEM until the wells were full. Thereafter, the cells filling the wells were scratched in a cross shape to create a wound, and treated with the immunoadjuvant SD208 (1 μmol/L) and the tumor marker TGF-β (5 ng/m) for 24 hours, and the wound healing rate over time was imaged using a microscope.

[3] = Confocal imaging of fluorescent substances in composite solvent microstructure; type: physicochemical; settings: PBS:DMSO 9:1, 20% (w/v) hyaluronic acid
Procedure: The fluorescein isothiocyanate (FITC) fluorescent substance which is soluble only in a water-soluble solvent, and the Cy5.5 fluorescent substance, which is soluble only in a fat-soluble solvent, were added to a composite solvent containing a mixture of a water-soluble solvent (PBS) and a fat-soluble solvent (DMSO) in a ratio of 9:1 (10% (v/v) fat-soluble) and 20% (w/v) hyaluronic acid was further dissolved, and microstructures were fabricated using the method of Manufacturing Example 1. Thereafter, the composite solvent fluorescence microstructures were imaged using the STELLARIS 8 STED confocal laser scanning microscope.

Row | Compound | effect of TGF-β (TGF-β) | expression of proteins activated by TGF-β (TGF-β; Psmad3, smad3, N-cadherin, E-cadherin) | melanoma cell spheroid volume increase effect caused by TGF-β (B16F10 melanoma cells [1]) | fluorescence value of PD-L1 (PD-L1 expression) (PD-L1) | wound healing effect by TGF-β (B16F10 melanoma cells [2]) | distribution within the microstructure [3]
1 | Fc1ccc(Cl)cc1-c1nc(Nc2ccncc2)c2nccnc2n1 [SD208] | inhibited the effect of TGF-β | suppressing the expression of proteins activated by TGF-β | inhibited | decreased | inhibited | 
2 | Cy5.5 |  |  |  |  |  | evenly distributed
